We go through two compounds from patent US20240398709A1, “DRY POWDER FOAMABLE FORMULATIONS FOR DELIVERY OF MEDICAMENTS THROUGH THE MUCOSA” (priority 2021, published 2024).

The test system of one data set is mucositis. The data set can be described thus: Amifostine oral rinse in a patient subject to chemotherapy (prevention/treatment of mucositis). The data set is classed as in vivo, human. As to conditions: for safety of administration: 200 mg WR-2721 (10 ml 0.09 M) or 125 mg WR-1065 (10 ml 0.09 M). The method, then: In this example, a patient is subject to chemotherapy as part of a treatment plan for head and neck cancer. The patient presents multiple squamous cell carcinoma tumors in the throat and larynx. The patient is administered amifostine for use after each chemotherapy session (e.g., for oral rinse within 15 minutes to two hours after chemotherapy).
The amifostine is administered to the patient in the formulation described above (Table 2). […] The patient rinses for approximately one minute and thereafter, expels/discards the rinse. The rinse process can be repeated.

For data set [1] the following is noted: after amifostine injection; animal study; cited from earlier work.
For the next data set, the system named is mouth mucosa cells. The data set can be described thus: Uptake of drug / WR-1065 into mouth mucosa cells after oral rinse. The data set is classed as in vivo, human. The method, then: Specifically, 125 mg of amifostine is provided as an oral rinse. The patient rinses for approximately one minute and thereafter, expels/discards the rinse. The rinse process can be repeated.

Data set [2] deals with epirubicin-induced oral mucositis. The note with it: patients with epirubicin-induced oral mucositis; cited from earlier work.
The conditions of data set [3]: cited from earlier work.
The conditions of data set [4]: following intravenous administration; cited from earlier work.

Consider `NCCCNCCS` [WR-1065], for which the safety of administration entry in the data set with mucositis is “can be safely administered”. Moreover, in the data set with mucositis (oral rinse), the systemic side-effects entry is reported as “no systemic side-effects are observed” and the tolerability entry is recorded as “well-tolerated”. In data set [1], the “time of maximum tissue concentrations of WR-1065” value was “five to fifteen”. In addition, the “WR-1065 concentration in washed, isolated, vital mouth mucosa cells” value in the data set on mouth mucosa cells is given as 3.7-19.9 ng/10^5 cells.
As for `NCCCNCCSP(=O)(O)O` [amifostine, S-2-(3-aminopropylamino) ethyl dihydrogen phosphorothioate], the safety of administration result with mucositis is “can be safely administered”. In data set [2], the “difference between patients given amifostine oral rinse and control” value is “no significant difference”. The “pH of maximal rate of hydrolysis” value in data set [3] (hydrolysis of amifostine to WR-1065 and inorganic phosphate) is 3.0. Also, in data set [3] (over four hours at room temperature), the “hydrolysis at neutral pH” value was “no detectable hydrolysis”. In data set [3] (pH from 1 to 3), the “stability at gastric pH” value is on record as “unstable”. Also, in data set [4], the “clearance from the plasma” value is on record as “rapidly cleared”.
